Measured values: ChEMBL document CHEMBL3352562, “(±)-Quassidines I and J, two pairs of cytotoxic bis-β-carboline alkaloid enantiomers from Picrasma quassioides” (J Nat Prod, 2015)

Legend:
Type in all cases: functional, cell-based
[1] = Cytotoxicity against human MKN28 cells assessed as cell survival after 48 hrs by MTT assay; conditions: MKN-28, 48 h
B16 = assay: Cytotoxicity against mouse B16 cells assessed as cell survival after 48 hrs by MTT assay; conditions: B16, 48 h
HeLa = assay: Cytotoxicity against human HeLa cells assessed as cell survival after 48 hrs by MTT assay

Row | Compound | IC50 [1] | IC50 (B16) | IC50 (HeLa)
1 | COc1cccc2c1[nH]c1c3[n+](cc(OC)c12)[C@H](c1ncc(OC)c2c1[nH]c1ccccc12)CCC3 | 6.3 µM | 10.8 µM | 5.75 µM
2 | COc1cccc2c1[nH]c1c3[n+](cc(OC)c12)[C@@H](c1ncc(OC)c2c1[nH]c1ccccc12)CCC3 | 12.3 µM | 15.4 µM | 10.5 µM
3 | COc1cccc2c1[nH]c1c([C@@H]3CCCc4c5[nH]c6c(O)cccc6c5c(OC)c[n+]43)ncc(OC)c12 | 4.91 µM | 9.34 µM | 4.03 µM
4 | COc1cccc2c1[nH]c1c([C@H]3CCCc4c5[nH]c6c(O)cccc6c5c(OC)c[n+]43)ncc(OC)c12 | 9.64 µM | 14.8 µM | 10.9 µM
5 | O=c1[nH]cc(F)c(=O)[nH]1 [FLUOROURACIL] | 9.67 µM | 7.64 µM | 13.5 µM
